Experimental findings from patent US6344457B1, “Amino acid derivatives inhibiting extracellular matrix metalloproteinase and TNF alpha release” (Chiesi Farmaceutici S.p.A., priority 1997, dated 2002) are described below.

Molecules are shown by their SMILES. Some results are limits rather than exact numbers.

For test [1], the target named is stromelysine of human origin (Homo sapiens, UniProt P08254). Kind of test: Activity on stromelysine. It counts as biochemical. The note with it: radiomarked transferrin, 37° C., 16 hours; read-out: C150 (nM) stromelysine. On the procedure: The stromelysine was incubated at 37° C. for 16 hours with radiomarked transferrin, and its activity was determined by the release of the soluble peptides produced by the enzymatic breakdown of the transferrin. The inhibiting concentration C150 for each compound was determined by measurement of the activity of the enzyme in the presence of the inhibitor at a concentration ranging between 10^−7 and 10^−12 M (the inhibitor is dissolved in the same manner as for collagenase).

In test [2] the target is 92 kDa gelatinase of human origin (Homo sapiens, UniProt P14780). Kind of test: Activity on gelatinase, radiomarked gelatin. The class given is biochemical. The note with it: test performed with radiomarked gelatin; read-out: C150 (nM) gelatinase 92 kDa*. On the procedure: The anti-gelatinase activity of the compounds according to the invention also was determined on 92 kDa or 72 kDa gelatinase of human origin, in accordance with the operating mode described by Harris, E. D., Krane, S. M.; (Biochem. Biophys. Acta, 258, 566-576, 1972).
The gelatinase was incubated at 37° C. for 16 hours with radiomarked gelatin, and its activity was determined by the release of the soluble peptides produced by the enzymatic breakdown of the gelatin. The inhibiting concentration C150 for each compound was determined by measurement of the activity of the enzyme in the presence of the inhibitor at a concentration ranging between 10^−7 and 10^−12 M (the inhibitor is dissolved in the same manner as for collagenase).

In test [3] the target is T1, 72 kDa gelatinase of human origin (Homo sapiens, UniProt P08253).
T1 sequence (P08253 110-660): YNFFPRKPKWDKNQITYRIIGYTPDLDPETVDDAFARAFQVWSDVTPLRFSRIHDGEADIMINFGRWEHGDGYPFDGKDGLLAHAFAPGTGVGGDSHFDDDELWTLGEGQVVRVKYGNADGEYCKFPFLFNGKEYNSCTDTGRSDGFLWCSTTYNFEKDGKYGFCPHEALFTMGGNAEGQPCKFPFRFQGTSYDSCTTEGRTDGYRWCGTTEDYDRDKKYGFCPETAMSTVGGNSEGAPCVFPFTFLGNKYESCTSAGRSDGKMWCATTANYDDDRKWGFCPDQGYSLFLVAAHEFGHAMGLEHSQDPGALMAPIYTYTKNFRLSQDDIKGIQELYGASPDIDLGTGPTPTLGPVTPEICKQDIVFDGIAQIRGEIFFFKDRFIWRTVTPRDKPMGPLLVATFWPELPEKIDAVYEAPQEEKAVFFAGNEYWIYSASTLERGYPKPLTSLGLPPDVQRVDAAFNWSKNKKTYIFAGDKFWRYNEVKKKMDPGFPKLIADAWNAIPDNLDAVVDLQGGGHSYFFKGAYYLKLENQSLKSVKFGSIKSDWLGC
Description: Activity on gelatinase, synthetic substrate. It counts as biochemical. The note with it: performed on synthetic substrate; read-out: C150 (nM) gelatinase 72 kDa**. On the procedure: The anti-gelatinase activity of the compounds according to the invention was determined on 72 kDa gelatinase of human origin, in accordance with the operating mode described by Knight, C. G., Willenbrock, F., Murphy, G. (FEBS Letters, 296 (3), 263-266, 1992).
The gelatinase was incubated at 37° C. for 10 minutes, and its activity was determined by the increase in fluorescence of the product of Mca-Pro-Leu breakdown of the Mca-Pro-Leu-Gly-Leu-Dpa-Ala-Arg-NH2 synthetic substrate.
The inhibiting concentration C150 for each compound was determined by measurement of the activity of the enzyme in the presence of the inhibitor at a concentration ranging between 10^−7 and 10^−12 M (the inhibitor is dissolved at a concentration of 10^−2 M in DMSO, then diluted successively by tenths in DMSO to 10^−4 M, then in the buffer: Tris, HCl 50 mM+0.05% Brij 35; CaCl2 10 mM; NaCl 0.15 M).

Test [4] addresses T2, collagenase of the human monocytic stock U937 (Homo sapiens, UniProt P03956).
T2 construct: the collagenase of the human monocytic stock U937; endogenous in cells; host or cells: U937 human monocytic cell line
T2 sequence (P03956 100-469): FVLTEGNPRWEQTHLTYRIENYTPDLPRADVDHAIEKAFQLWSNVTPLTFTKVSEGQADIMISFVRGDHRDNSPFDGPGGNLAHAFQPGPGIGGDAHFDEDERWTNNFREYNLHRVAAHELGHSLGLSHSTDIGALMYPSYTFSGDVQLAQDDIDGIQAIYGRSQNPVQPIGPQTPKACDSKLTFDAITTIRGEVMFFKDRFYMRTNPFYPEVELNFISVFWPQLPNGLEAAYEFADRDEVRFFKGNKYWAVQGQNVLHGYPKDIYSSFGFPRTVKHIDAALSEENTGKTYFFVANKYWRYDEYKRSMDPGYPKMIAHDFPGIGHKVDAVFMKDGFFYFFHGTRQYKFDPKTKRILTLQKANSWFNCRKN
Kind of test: Activity on collagenase. It counts as biochemical. The note with it: radiomarked collagen, 27° C., 16 hours; read-out: C150 (nM) collagenase. On the procedure: The collagenase was incubated at 27° C. for 16 hours with radiomarked collagen, and its activity was determined by the release of soluble peptides produced by the enzymatic breakdown of the collagen. The inhibiting concentration C150 for each compound was determined by measurement of the activity of the enzyme in the presence of the inhibitor at a concentration ranging between 10^−7 and 10^−12 M (the inhibitor is dissolved at a concentration of 10^−2 M in DMSO, then diluted successively by tenths in the buffer: Tris, HCl 150 mM, pH 7.5; NaCl 0.15 M; CaCl2 10 mM).

The subject of test [5] is release of TNF from the peritoneal macrophages of mice stimulated by LPS. Kind of test: Inhibition of the production of TNF in vitro. The class given is cell-based. The note with it: Peritoneal macrophage; mouse peritoneal macrophages, LPS 100 ng/ml; read-out: C150 (μM) TNF. On the procedure: The capacity of the compounds according to this invention to inhibit the release of TNF was determined from the peritoneal macrophages of mice stimulated by LPS (Lang, F., Robert, […], Petit, J. Y., J. Pharmacol. Exp. Ther., 275, 171-176, 1995). After an adhesion phase of 2 hours, the cells were treated for 1 hour with the compound to be tested at concentrations ranging between 10^-6 to 10^-9 M (the inhibitor is dissolved in DMSO at 10^-2 M, then at 5.10^-3 M in RPMI 1640 with 5% SVF, then diluted successively by tenths in the same medium), then stimulated by the addition of LPS (100 ng/ml in final concentration). Three hours later, the biological activity of the TNF in the supernatants was determined by a cytotoxicity test using the murine stock L929 in accordance with the operating procedure described by Band, G., Lin, […]., Evans, C. H. (Bioch. Biophys. Acta, 1134, 309-318, 1982). The pg/ml concentration of the TNF of the samples was determined from a murine αTNF standard curve, thus making it possible to define the inhibiting concentration […] of the compounds studied.

Chain of stromelysine of human origin (P08254 100-477): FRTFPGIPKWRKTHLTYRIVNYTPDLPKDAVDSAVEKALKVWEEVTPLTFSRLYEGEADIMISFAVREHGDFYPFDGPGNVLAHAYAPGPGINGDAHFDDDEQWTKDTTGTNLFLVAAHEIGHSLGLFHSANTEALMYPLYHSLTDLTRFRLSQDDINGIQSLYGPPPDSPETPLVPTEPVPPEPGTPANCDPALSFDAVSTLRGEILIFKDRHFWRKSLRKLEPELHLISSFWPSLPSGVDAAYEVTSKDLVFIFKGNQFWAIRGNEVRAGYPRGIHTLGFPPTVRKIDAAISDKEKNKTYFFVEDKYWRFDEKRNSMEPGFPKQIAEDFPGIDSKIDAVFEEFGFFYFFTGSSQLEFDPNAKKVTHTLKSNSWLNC
Chain of 92 kDa gelatinase of human origin (P14780 94-707): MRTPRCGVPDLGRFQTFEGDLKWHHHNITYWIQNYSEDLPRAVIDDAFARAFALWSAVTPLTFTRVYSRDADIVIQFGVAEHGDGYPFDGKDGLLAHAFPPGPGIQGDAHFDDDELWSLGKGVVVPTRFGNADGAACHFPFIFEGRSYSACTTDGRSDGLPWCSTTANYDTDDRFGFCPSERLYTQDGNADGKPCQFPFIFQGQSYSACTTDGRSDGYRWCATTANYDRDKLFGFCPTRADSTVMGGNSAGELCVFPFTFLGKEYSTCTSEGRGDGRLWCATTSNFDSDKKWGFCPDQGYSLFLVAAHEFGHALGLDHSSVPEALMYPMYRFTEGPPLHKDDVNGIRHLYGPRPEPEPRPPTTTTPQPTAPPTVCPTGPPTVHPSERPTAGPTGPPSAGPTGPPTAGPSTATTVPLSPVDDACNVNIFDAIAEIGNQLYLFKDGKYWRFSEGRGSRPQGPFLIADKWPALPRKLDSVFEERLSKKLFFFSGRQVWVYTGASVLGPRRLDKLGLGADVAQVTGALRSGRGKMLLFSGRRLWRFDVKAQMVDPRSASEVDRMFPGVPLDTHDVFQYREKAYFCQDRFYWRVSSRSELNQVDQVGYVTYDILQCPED

Turning to `CNC(=O)[C@H](Cc1ccc(OC)cc1)NC(=O)[C@](O)(CC(C)C)[C@H](OC)C(=O)NO` [Example 31, N-2(S)[(S) hydroxycarbamoyl(S)methoxy]methyl 2(S) hydroxy-4 methyl pentanoyl O-methyl tyrosine N-methylamide], the IC50 in test [1] was found to be 90 nM; in test [2], 140 nM; in test [3], 18 nM; in test [4], 120 nM.

With `CNC(=O)[C@H](Cc1ccc(I)cc1)NC(=O)[C@](O)(CC(C)C)[C@H](C)C(=O)NO` [Example 14, N-2(S)[1(S) hydroxycarbamoyl-1 ethyl]-2(S) hydroxy 4 methyl pentanoyl L-4-iodophenylalanine N-methylamide], the IC50 was determined as 12 nM in test [1]; 0.2 nM in test [2]; 0.3 nM in test [3]; 0.4 µM in test [5]; 2 nM in test [4].

Turning to `CNC(=O)[C@@H](NC(=O)[C@](O)(CC(C)C)[C@H](C)C(=O)NO)C(C)(C)C` [Example 2, N-2-(S)[1(S)(hydroxycarbamoyl)ethyl]-2(S) hydroxy-4-methylpentanoyl 3-methyl-(S) valine N-methylamide], the IC50 in test [1] is 60 nM; in test [2], 16 nM; in test [3] it was 3.4 nM; in test [4] it was 18 nM.

Regarding `CSCCNC(=O)[C@H](Cc1ccc(I)cc1)NC(=O)[C@](O)(CC(C)C)[C@H](C)C(=O)NO` [Example 15, N-2(S)[1(S) hydroxycarbamoyl-1 ethyl]2(S) hydroxy 4-methylpentanoyl L-4-iodophenylalanine N-(2 methylthio-1-ethyl) amide], the IC50 came to 38 nM in test [1]; 0.001 nM in test [2]; 1.3 nM in test [3]; 4.5 µM in test [5]; 32 nM in test [4].

On to `CNC(=O)[C@H](Cc1ccc(OC)cc1)NC(=O)[C@H](CC(C)C)[C@H](C)C(=O)NO` [drawing 111, reference compound], for which the IC50 was 10 nM in test [1]; 7 nM in test [2]; 0.6 nM in test [3]; 0.14 µM in test [5]; 5 nM in test [4].

Turning to `CNC(=O)[C@H](Cc1ccc(N)cc1)NC(=O)[C@](O)(CC(C)C)[C@H](C)C(=O)NO` [Example 9, N-2(S)[1(S) (hydroxycarbamoyl) 1(S)ethyl]2-(S) hydroxy-4-methyl pentanoyl L-4-amino phenylalanine N-methylamide], the IC50 in test [1] worked out at 50 nM; in test [2], 2 nM; in test [3] it was 1.6 nM; in test [5], 2.2 µM; in test [4], 11 nM.

As to `CSCCNC(=O)[C@H](Cc1ccc(Cl)cc1)NC(=O)[C@](O)(CC(C)C)[C@H](C)C(=O)NO` [Example 13, N-2(S)[-1-(S)(hydroxycarbamoyl)-1 ethyl]-2(S) hydroxy-4-methylpentanoylL-4-chlorophenylalanine N-(2 methylthio-1-ethyl) amide], the IC50 in test [1] came to 20 nM; in test [2] it was 0.005 nM; in test [3] it was 1.6 nM; in test [5] it was 0.15 µM; in test [4], 10 nM.

As for `CNC(=O)[C@H](Cc1ccc(Cl)cc1)NC(=O)[C@](O)(CC(C)C)[C@H](O)C(=O)NO` [Example 3, N-2 (S) [(S) hydroxy (S) hydroxycarbamoylmethyl] 2(S) hydroxy 4-methyl pentanoyl L-4-chlorophenylalanine N-methylamide], the IC50 in test [1] was over 1000 nM; in test [2], 54 nM; in test [3], 6.7 nM; in test [5], 3.2 µM; in test [4], 50 nM.

Take `COc1ccc(C[C@H](NC(=O)[C@](O)(CC(C)C)[C@H](C)C(=O)NO)C(=O)NCc2ccccc2)cc1` [Example 5, N-2(S)[-1-(S)(hydroxycarbamoyl)-ethyl]-2(S) hydroxy-4-methyl 2entanol O methyl-L-tyrosine phenylmethylamide]: the IC50 was determined as 11 nM in test [1], 0.5 nM in test [2], 2.4 nM in test [3] and 12 nM in test [4].
